Laboratory results: patent US11858941B2, “Heterocyclic and heteroaryl compounds for treating Huntington's disease” (PTC THERAPEUTICS, INC., priority 2018, dated 2024)

System: Endogenous Huntingtin Protein
Assay: Endogenous Huntingtin Protein Assay (Meso Scale Discovery ELISA-based electrochemiluminescence)
Assay type: cell-based
Conditions: MSD plates coated with MW1 (expanded polyglutamine) or MAB2166 capture antibody; lysates
How it was run: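 MSD electrochemiluminescence sandwich ELISA: MW1 (expanded polyQ) or MAB2166 capture antibody at 1 μg/mL, samples incubated overnight at 4° C. Detection with rabbit monoclonal #5656S then SULFO-TAG anti-rabbit antibody, each 0.25 μg/mL for 1 h at room temperature.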

Row | SMILES | IC50 [nM]
1 | CC1(C)CC(n2cnc3cc(-c4ncc(-c5cn[nH]c5)cc4O)nnc32)CC(C)(C)N1 [Cpd 141, 5-(1H-pyrazol-4-yl)-2-[7-(2,2,6,6-tetramethylpiperidin-4-yl)-7H-imidazo[4,5-c]pyridazin-3-yl]pyridin-3-ol] | ≤ 100
2 | CC1(C)CC(n2nnc3cc(-c4ccc(-c5cn6ccnc6cn5)cc4O)nnc32)CC(C)(C)N1 [Cpd 142, 5-(imidazo[1,2-a]pyrazin-6-yl)-2-[3-(2,2,6,6-tetramethylpiperidin-4-yl)-3H-[1,2,3]triazolo[4,5-c]pyridazin-6-yl]phenol] | ≤ 100
3 | CC1(C)CC(n2nnc3cc(-c4ccc(-n5cnc(F)c5)cc4O)nnc32)CC(C)(C)N1 [Cpd 143, 5-(4-fluoro-1H-imidazol-1-yl)-2-[3-(2,2,6,6-tetramethylpiperidin-4-yl)-3H-[1,2,3]triazolo[4,5-c]pyridazin-6-yl]phenol] | ≤ 100
4 | Cc1cn(-c2ccc(-c3cc4nnn(C5CC(C)(C)NC(C)(C)C5)c4nn3)c(O)c2)cn1 [Cpd 144, 5-(4-methyl-1H-imidazol-1-yl)-2-[3-(2,2,6,6-tetramethylpiperidin-4-yl)-3H-[1,2,3]triazolo[4,5-c]pyridazin-6-yl]phenol] | ≤ 100
5 | Cn1cc(-c2ccc(-c3cc4cnn(C5CC(C)(C)NC(C)(C)C5)c4nn3)c(O)c2)c(F)n1 [Cpd 148] | ≤ 100
6 | Cc1cn(-c2ccc(-c3cc4nnn(C5CC(C)(C)NC(C)(C)C5)c4nn3)c(O)c2)c(C)n1 [Cpd 149, 5-(2,4-dimethyl-1H-imidazol-1-yl)-2-[3-(2,2,6,6-tetramethylpiperidin-4-yl)-3H-[1,2,3]triazolo[4,5-c]pyridazin-6-yl]phenol] | 1000 to 3000
7 | CC1(C)CC(n2nnc3cc(-c4ccc(-c5ccc6nncn6n5)cc4O)nnc32)CC(C)(C)N1 [Cpd 152, 2-[3-(2,2,6,6-tetramethylpiperidin-4-yl)-3H-[1,2,3]triazolo[4,5-c]pyridazin-6-yl]-5-([1,2,4]triazolo[4,3-b]pyridazin-6-yl)phenol] | 100 to 500
8 | Cc1nsc(-c2ccc(-c3cc4nnn(C5CC(C)(C)NC(C)(C)C5)c4nn3)c(O)c2)n1 [Cpd 153, 5-(3-methyl-1,2,4-thiadiazol-5-yl)-2-[3-(2,2,6,6-tetramethylpiperidin-4-yl)-3H-[1,2,3]triazolo[4,5-c]pyridazin-6-yl]phenol] | ≤ 100
9 | Cc1ccnn1-c1ccc(-c2cc3nnn(C4CC(C)(C)NC(C)(C)C4)c3nn2)c(O)c1 [Cpd 155, 5-(5-methyl-1H-pyrazol-1-yl)-2-[3-(2,2,6,6-tetramethylpiperidin-4-yl)-3H-[1,2,3]triazolo[4,5-c]pyridazin-6-yl]phenol] | 3000 to 9000
10 | Cc1cnn(-c2ccc(-c3cc4nnn(C5CC(C)(C)NC(C)(C)C5)c4nn3)c(O)c2)c1 [Cpd 156, 5-(4-methyl-1H-pyrazol-1-yl)-2-(3-(2,2,6,6-tetramethylpiperidin-4-yl)-3H-[1,2,3]triazolo[4,5-c]pyridazin-6-yl)phenol] | 100 to 500
11 | Cc1ccn(-c2ccc(-c3cc4nnn(C5CC(C)(C)NC(C)(C)C5)c4nn3)c(O)c2)n1 [Cpd 157, 5-(3-methyl-1H-pyrazol-1-yl)-2-(3-(2,2,6,6-tetramethylpiperidin-4-yl)-3H-[1,2,3]triazolo[4,5-c]pyridazin-6-yl)phenol] | 100 to 500
12 | CC1(C)CC(n2ncc3cc(-c4ccc(-c5c[nH]nc5F)cc4O)nnc32)CC(C)(C)N1 [Cpd 161, 5-(3-fluoro-1H-pyrazol-4-yl)-2-(1-(2,2,6,6-tetramethylpiperidin-4-yl)-1H-pyrazolo[3,4-c]pyridazin-5-yl)phenol] | ≤ 100
13 | CC1(C)CC(n2nnc3cc(-c4ccc(-c5ccc6nccn6n5)cc4O)nnc32)CC(C)(C)N1 [Cpd 162, 5-(imidazo[1,2-b]pyridazin-6-yl)-2-(3-(2,2,6,6-tetramethylpiperidin-4-yl)-3H-[1,2,3]triazolo[4,5-c]pyridazin-6-yl)phenol] | ≤ 100
14 | CC1(C)CC(n2nnc3cc(-c4ccc(-n5nccn5)cc4O)nnc32)CC(C)(C)N1 [Cpd 163, 2-[3-(2,2,6,6-tetramethylpiperidin-4-yl)-3H-[1,2,3]triazolo[4,5-c]pyridazin-6-yl]-5-(2H-1,2,3-triazol-2-yl)phenol] | ≤ 100
15 | CC1(C)C[C@H](n2nnc3cc(-c4ccc(-c5cn[nH]c5)cc4O)nnc32)[C@H](F)C(C)(C)N1 [Cpd 164, 2-{3-[(3S,4S)-3-fluoro-2,2,6,6-tetramethylpiperidin-4-yl]-3H-[1,2,3]triazolo[4,5-c]pyridazin-6-yl}-5-(1H-pyrazol-4-yl)phenol] | ≤ 100

Second part, the compound after the results:

Row | IC50 [nM] | SMILES
16 | 1000 to 3000 | CC1(C)CC(n2nnc3cc(-c4ccc(-c5cnc6nn[nH]c6c5)cc4O)nnc32)CC(C)(C)N1 [Cpd 145, 2-[3-(2,2,6,6-tetramethylpiperidin-4-yl)-3H-[1,2,3]triazolo[4,5-c]pyridazin-6-yl]-5-(1H-[1,2,3]triazolo[4,5-b]pyridin-6-yl)phenol]
17 | 1000 to 3000 | CC1(C)CC(n2nnc3cc(-c4ccc(-c5cc6nn[nH]c6cn5)cc4O)nnc32)CC(C)(C)N1 [Cpd 146, 2-[3-(2,2,6,6-tetramethylpiperidin-4-yl)-3H-[1,2,3]triazolo[4,5-c]pyridazin-6-yl]-5-(3H-[1,2,3]triazolo[4,5-c]pyridin-6-yl)phenol]
18 | 1000 to 3000 | CC1(C)CC(n2nnc3cc(-c4ccc(-c5ccc6[nH]nnc6n5)cc4O)nnc32)CC(C)(C)N1 [Cpd 147, 2-[3-(2,2,6,6-tetramethylpiperidin-4-yl)-3H-[1,2,3]triazolo[4,5-c]pyridazin-6-yl]-5-(1H-[1,2,3]triazolo[4,5-b]pyridin-5-yl)phenol]
19 | ≤ 100 | Cc1ncc(-c2ccc(-c3cc4nnn(C5CC(C)(C)NC(C)(C)C5)c4nn3)c(O)c2)s1 [Cpd 150, 5-(2-methyl-1,3-thiazol-5-yl)-2-[3-(2,2,6,6-tetramethylpiperidin-4-yl)-3H-[1,2,3]triazolo[4,5-c]pyridazin-6-yl]phenol]
20 | ≤ 100 | Cn1ncc(-c2ccc(-c3cc4nnn(C5CC(C)(C)NC(C)(C)C5)c4nn3)c(O)c2)n1 [Cpd 151, 5-(2-methyl-2H-1,2,3-triazol-4-yl)-2-[3-(2,2,6,6-tetramethylpiperidin-4-yl)-3H-[1,2,3]triazolo[4,5-c]pyridazin-6-yl]phenol]
21 | ≤ 100 | Cc1nc(F)c(-c2ccc(-c3cc4nnn(C5CC(C)(C)NC(C)(C)C5)c4nn3)c(O)c2)s1 [Cpd 154, 5-(4-fluoro-2-methyl-1,3-thiazol-5-yl)-2-[3-(2,2,6,6-tetramethylpiperidin-4-yl)-3H-[1,2,3]triazolo[4,5-c]pyridazin-6-yl]phenol]
22 | ≤ 100 | Cc1ncc(-c2ccc(-c3cc4nnn(C5CC(C)(C)NC(C)(C)C5)c4nn3)c(O)c2)o1 [Cpd 158, 5-(2-methyl-1,3-oxazol-5-yl)-2-[3-(2,2,6,6-tetramethylpiperidin-4-yl)-3H-[1,2,3]triazolo[4,5-c]pyridazin-6-yl]phenol]
23 | ≤ 100 | COc1ncnc(-c2ccc(-c3cc4nnn(C5CC(C)(C)NC(C)(C)C5)c4nn3)c(O)c2)n1 [Cpd 159, 5-(4-methoxy-1,3,5-triazin-2-yl)-2-(3-(2,2,6,6-tetramethylpiperidin-4-yl)-3H-[1,2,3]triazolo[4,5-c]pyridazin-6-yl)phenol]
24 | 100 to 500 | CC1(C)CC(n2nnc3cc(-c4ccc(-c5cnc6nccn6c5)cc4O)nnc32)CC(C)(C)N1 [Cpd 160, 5-(imidazo[1,2-a]pyrimidin-6-yl)-2-(3-(2,2,6,6-tetramethylpiperidin-4-yl)-3H-[1,2,3]triazolo[4,5-c]pyridazin-6-yl)phenol]
